In general, MIC refers to the lowest concentration that inhibits growth of the organism. A low value points to inhibition by little substance. Broadly, the inhibition is how much of the control response was suppressed.

One experiment concerns the target Cholinesterase (Equus caballus, UniProt P81908). Briefly: Inhibition of equine serum BChE by colorimetric Ellman's assay.
A further experiment concerns the target Acetylcholinesterase (Electrophorus electricus, UniProt O42275). Kind of experiment: Inhibition of electric eel AChE by colorimetric Ellman's assay. (In Ellman's method for cholinesterases, released thiocholine reacts with DTNB.)
For experiment [1], the system named is Mycobacterium tuberculosis. Briefly: Antitubercular activity against replicating Mycobacterium tuberculosis H37Rv ATCC 27294 after 1 week by microplate alamar blue assay. It counts as functional. To be noted: H37Rv ATCC 27294, 168 h. (The colour change of resazurin is a common sign of viable cells or microbes.)
In experiment [2] the test system is Mycobacterium tuberculosis. Briefly: Antitubercular activity against replicating Mycobacterium tuberculosis H37Rv ATCC 27294 at 100 ug/ml after 1 week by microplate alamar blue assay. It counts as functional. The note with it: H37Rv ATCC 27294, 168 h.
Experiment [3] concerns Mycobacterium tuberculosis. Kind of experiment: Antitubercular activity against non-replicating Mycobacterium tuberculosis H37Rv ATCC 27294 incubated 10 days under anaerobic condition measured after 28 hrs of recovery in air by luciferase based low oxygen recovery assay. The class given is functional.
In experiment [4] the test system is Mycobacterium tuberculosis. Briefly: Antitubercular activity against replicating Mycobacterium tuberculosis H37Rv ATCC 27294 at 20 ug/ml after 1 week by microplate alamar blue assay. It counts as functional. The note with it: H37Rv ATCC 27294, 168 h.
Experiment [5] relates to Mycobacterium tuberculosis. Briefly: Antitubercular activity against replicating Mycobacterium tuberculosis H37Rv ATCC 27294 at 50 ug/ml after 1 week by microplate alamar blue assay. The class given is functional. The note with it: H37Rv ATCC 27294, 168 h.

Converted amounts (≈) assume the structure as drawn.

Acetylcholinesterase, sequence (O42275 whole entry): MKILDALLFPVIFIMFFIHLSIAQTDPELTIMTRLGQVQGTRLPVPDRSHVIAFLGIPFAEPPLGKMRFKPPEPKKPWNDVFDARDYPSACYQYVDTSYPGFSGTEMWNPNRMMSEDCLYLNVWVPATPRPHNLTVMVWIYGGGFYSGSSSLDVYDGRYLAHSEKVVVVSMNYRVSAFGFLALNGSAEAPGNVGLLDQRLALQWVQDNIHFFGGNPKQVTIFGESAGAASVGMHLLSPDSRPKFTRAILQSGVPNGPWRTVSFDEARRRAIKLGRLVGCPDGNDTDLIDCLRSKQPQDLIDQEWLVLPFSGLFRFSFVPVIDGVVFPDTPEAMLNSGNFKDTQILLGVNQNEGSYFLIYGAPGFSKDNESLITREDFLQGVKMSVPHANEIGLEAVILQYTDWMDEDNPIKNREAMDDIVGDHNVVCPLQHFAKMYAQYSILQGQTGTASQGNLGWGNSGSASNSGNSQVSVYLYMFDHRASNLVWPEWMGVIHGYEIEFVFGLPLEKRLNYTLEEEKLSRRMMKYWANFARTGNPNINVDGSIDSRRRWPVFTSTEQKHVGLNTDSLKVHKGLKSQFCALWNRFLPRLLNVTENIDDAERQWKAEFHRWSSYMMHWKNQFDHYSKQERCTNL
Cholinesterase, sequence (P81908 whole entry): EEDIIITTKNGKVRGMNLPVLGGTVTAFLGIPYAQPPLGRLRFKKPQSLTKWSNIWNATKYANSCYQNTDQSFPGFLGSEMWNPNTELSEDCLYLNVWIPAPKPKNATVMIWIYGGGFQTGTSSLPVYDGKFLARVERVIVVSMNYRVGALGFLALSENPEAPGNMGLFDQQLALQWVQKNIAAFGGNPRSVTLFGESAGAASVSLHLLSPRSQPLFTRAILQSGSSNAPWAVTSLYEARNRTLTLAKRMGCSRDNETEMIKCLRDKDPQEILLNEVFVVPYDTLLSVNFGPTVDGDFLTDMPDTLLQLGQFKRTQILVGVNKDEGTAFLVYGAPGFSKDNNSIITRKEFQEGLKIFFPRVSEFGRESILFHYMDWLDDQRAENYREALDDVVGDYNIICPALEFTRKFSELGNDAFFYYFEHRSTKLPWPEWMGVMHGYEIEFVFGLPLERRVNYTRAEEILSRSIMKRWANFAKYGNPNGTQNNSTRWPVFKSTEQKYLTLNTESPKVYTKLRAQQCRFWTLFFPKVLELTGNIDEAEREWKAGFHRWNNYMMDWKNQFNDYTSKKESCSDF

In the case of `COC(=O)C1=C2Nc3ccccc3[C@@]23CCN2C[C@]4(C[C@@H]5C[C@]67CC(=O)O[C@H]6CCN6CC[C@@]8(c9cccc(OC)c9N(C4)[C@@H]58)[C@@H]67)[C@@H]4OCC[C@]4(C1)[C@H]23` [DEOXYVOBSTUSINE LACTONE], the IC50 was found to be 20.2 µM at Cholinesterase (read-out: IC50) and 91 µM against Acetylcholinesterase. Besides, the MIC in experiment [1] was above 100 µg/mL. Besides, the inhibition at 100 µg/mL in experiment [2] amounted to 35%.

On to `CO[C@H]1/C=C/O[C@@]2(C)Oc3c(C)c(O)c4c(O)c(c(/C=N/N5CCN(C)CC5)c(O)c4c3C2=O)NC(=O)/C(C)=C\C=C\[C@H](C)[C@H](O)[C@@H](C)[C@@H](O)[C@@H](C)[C@H](OC(C)=O)[C@@H]1C` [RIFAMPIN], for which the MIC in experiment [3] turned out to be 0.84 µg/mL (≈ 1.02 µM); in experiment [1] it was 0.15 µg/mL (≈ 0.182 µM).

In turn, `C=C(C)[C@@H]1CC[C@]2(C)CC[C@]3(C)[C@H](CC[C@@H]4[C@@]5(C)CC[C@H](O)C(C)(C)[C@@H]5CC[C@]43C)[C@@H]12` [LUPEOL] registered an inhibition at 20 µg/mL in experiment [4] of 0%. For the same molecule, the MIC in experiment [1] was above 20 µg/mL.

In the case of `COc1c(N2C[C@@H]3CCCN[C@@H]3C2)c(F)cc2c(=O)c(C(=O)O)cn(C3CC3)c12` [MOXIFLOXACIN], the MIC in experiment [3] amounted to 33.2 µg/mL (≈ 82.7 µM); in experiment [1], 0.83 µg/mL (≈ 2.07 µM).

For `COC(=O)C1=C2Nc3ccccc3[C@@]23CCN2C[C@]4(C[C@@H]5C[C@]67CCO[C@H]6CCN6CC[C@@]8(c9cccc(OC)c9N(C4)[C@@H]58)[C@@H]67)[C@@H]4OCC[C@]4(C1)[C@H]23` [DEOXYVOBTUSINE], the IC50 on Cholinesterase (read-out: IC50) is 6.2 µM; on Cholinesterase (read-out: pIC50 (converted)), 7.73 µM; against Acetylcholinesterase, 87 µM. The molecule further showed an inhibition at 50 µg/mL in experiment [5] of 13%. The molecule further showed an MIC in experiment [1] above 50 µg/mL.

On to `COC(=O)C1=C2Nc3ccccc3[C@@]23CCN2[C@H](O)[C@]4(C[C@@H]5C[C@]67CC(=O)O[C@H]6CCN6CC[C@@]8(c9cccc(OC)c9N(C4)[C@@H]58)[C@@H]67)[C@@H]4OCC[C@]4(C1)[C@H]23` [GLOBOSPIRAMINE], for which the IC50 on Cholinesterase (read-out: IC50) is 16.4 µM; at Cholinesterase (read-out: pIC50 (converted)), 16.3 µM; at Acetylcholinesterase, 94 µM. In addition, the MIC in experiment [3] is 5.2 µg/mL (≈ 7.1 µM); in experiment [1] it was 4 µg/mL (≈ 5.46 µM).

Consider `NNC(=O)c1ccncc1` [ISONIAZID], for which the MIC was above 128 µg/mL in experiment [3] and 0.68 µg/mL (≈ 4.96 µM) in experiment [1].

Consider `COC(=O)C1=C2Nc3ccccc3[C@@]23CCN2C[C@]4(C[C@@H]5C[C@]67CC(=O)C[C@H]6CCN6CC[C@@]8(c9cccc(OC)c9N(C4)[C@@]58O)[C@@H]67)[C@@H]4OCC[C@]4(C1)[C@H]23` [VOBTUSINE LACTONE], for which the results for the IC50 at Cholinesterase (read-out: IC50) and against Acetylcholinesterase were 18 µM and 90 µM, respectively. Also, the inhibition at 50 µg/mL in experiment [5] turned out to be 13%. In experiment [1], this molecule gave an MIC above 50 µg/mL.

Values taken from ChEMBL document CHEMBL1795314, “Mycobacterium tuberculosis and cholinesterase inhibitors from Voacanga globosa” (Eur J Med Chem, 2011).
